In PubChem BioAssay AID1963981 (Molecular Pharmacology Branch, DTP, NCI, 2024):

Test system: 354836-022-R-J1-PDC multicell spheroid viability
Assay: Anticancer human tumor 354836-022-R-J1-PDC patient-derived head and neck squamous cell carcinoma cell line growth inhibition [PI3K]
Settings: for viability, T/C: stronger effect = lower value
How it was run: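 Tumor cells grown as multi-cell spheroids with HUVEC endothelial cells and MSC fibroblast-like stroma were treated with targeted agents combined with inavolisib, alpelisib, duvelisib or copanlisib. Doses fell in half-log steps from near clinical Cmax, else from 10 microM. Viability was measured.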

[1] = curve of first compound, second compound 0.00316 µM
[2] = curve of first compound, second compound 0.01 µM
[3] = curve of first compound, second compound 0.0316 µM
[4] = curve of first compound, second compound 0.1 µM
[5] = curve of first compound, second compound 0.316 µM
[6] = curve of first compound, second compound 1 µM
[7] = second compound 0.00316 µM, first compound 0.0316 µM
[8] = second compound 0.00316 µM, first compound 0.1 µM
[9] = second compound 0.00316 µM, first compound 0.316 µM
[10] = second compound 0.00316 µM, first compound 1 µM
[11] = second compound 0.00316 µM, first compound 3.16 µM
[12] = second compound 0.00316 µM, first compound 10 µM
[13] = second compound 0.01 µM, first compound 0.0316 µM
[14] = second compound 0.01 µM, first compound 0.1 µM
[15] = second compound 0.01 µM, first compound 0.316 µM
[16] = second compound 0.01 µM, first compound 1 µM
[17] = second compound 0.01 µM, first compound 3.16 µM
[18] = second compound 0.01 µM, first compound 10 µM
[19] = second compound 0.0316 µM, first compound 0.0316 µM
[20] = second compound 0.0316 µM, first compound 0.1 µM
[21] = second compound 0.0316 µM, first compound 0.316 µM
[22] = second compound 0.0316 µM, first compound 1 µM
[23] = second compound 0.0316 µM, first compound 3.16 µM
[24] = second compound 0.0316 µM, first compound 10 µM
[25] = second compound 0.1 µM, first compound 0.0316 µM
[26] = second compound 0.1 µM, first compound 0.1 µM
[27] = second compound 0.1 µM, first compound 0.316 µM
[28] = second compound 0.1 µM, first compound 1 µM
[29] = second compound 0.1 µM, first compound 3.16 µM
[30] = second compound 0.1 µM, first compound 10 µM
[31] = second compound 0.316 µM, first compound 0.0316 µM
[32] = second compound 0.316 µM, first compound 0.1 µM
[33] = second compound 0.316 µM, first compound 0.316 µM
[34] = second compound 0.316 µM, first compound 1 µM
[35] = second compound 0.316 µM, first compound 3.16 µM
[36] = second compound 0.316 µM, first compound 10 µM
[37] = second compound 1 µM, first compound 0.0316 µM
[38] = second compound 1 µM, first compound 0.1 µM
[39] = second compound 1 µM, first compound 0.316 µM
[40] = second compound 1 µM, first compound 1 µM
[41] = second compound 1 µM, first compound 3.16 µM
[42] = second compound 1 µM, first compound 10 µM
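Note: spheroids exposed to agents for seven days before the viability read.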

With `C[C@@H](NC(=O)c1ncnc(N)c1Cl)c1ncc(C(=O)Nc2cc(C(F)(F)F)c(Cl)cn2)s1` + CC(Nc1ccc2c(c1)OCCn1cc(N3C(=O)OCC3C(F)F)nc1-2)C(N)=O the IC50 [1] was over 10000 nM, the IC50 [2] was over 10000 nM and the IC50 [3] was over 10000 nM. The IC50 [4] was over 10000 nM, the IC50 [5] was over 10000 nM and the IC50 [6] was over 10000 nM. It also gave a viability, T/C [7] of 98.4%, a viability, T/C [8] of 92.4% and a viability, T/C [9] of 103%. It also gave a viability, T/C [10] of 109%, a viability, T/C [11] of 107% and a viability, T/C [12] of 67.5%. For the same compound, the viability, T/C [13] was 108%, the viability, T/C [14] was 90.9% and the viability, T/C [15] was 91.4%. The viability, T/C [16] was 104%, the viability, T/C [17] was 110% and the viability, T/C [18] was 64.1%. For the same compound, the viability, T/C [19] was 92.1%, the viability, T/C [20] was 93.1% and the viability, T/C [21] was 102%. For the same compound, the viability, T/C [22] was 111%, the viability, T/C [23] was 103% and the viability, T/C [24] was 71.9%. It also gave a viability, T/C [25] of 82.2%, a viability, T/C [26] of 93.8% and a viability, T/C [27] of 94.9%. It also gave a viability, T/C [28] of 92.3%, a viability, T/C [29] of 88.5% and a viability, T/C [30] of 71.6%. The viability, T/C [31] was 74.4%, the viability, T/C [32] was 75.9% and the viability, T/C [33] was 82.9%. The viability, T/C [34] was 84.6%, the viability, T/C [35] was 88.1% and the viability, T/C [36] was 58.1%. The viability, T/C [37] was 63%, the viability, T/C [38] was 62.2% and the viability, T/C [39] was 62.9%. It also gave a viability, T/C [40] of 65.2%, a viability, T/C [41] of 74.5% and a viability, T/C [42] of 53.6%.

In the case of `Cn1cnc2c(F)c(Nc3ccc(Br)cc3Cl)c(C(=O)NOCCO)cc21`, the viability, T/C (compound 0.00949 µM) is reported as 90% [middle of 4 runs], the viability, T/C (compound 0.03 µM) is reported as 85.5% [middle of 4 runs] and the viability, T/C (compound 0.0949 µM) is reported as 91.4% [middle of 4 runs]. The viability, T/C (compound 0.3 µM) was 74.8% [middle of 4 runs], the viability, T/C (compound 0.949 µM) was 80.2% [middle of 4 runs] and the viability, T/C (compound 3 µM) was 58.4% [middle of 4 runs]. The IC50 (curve of compound) was over 3000 nM.

For `CC1(C)CCC(Nc2ncc(C(F)(F)F)c(-c3c[nH]c4c(P(C)(C)=O)c(C#N)ccc34)n2)CN1` (stereo not given), the viability, T/C (compound 0.0316 µM) was 21.9% [middle of 4 runs], the viability, T/C (compound 0.1 µM) was 19.9% [middle of 4 runs] and the viability, T/C (compound 0.316 µM) was 20.8% [middle of 4 runs]. The viability, T/C (compound 1 µM) was 21.9% [middle of 4 runs], the viability, T/C (compound 3.16 µM) was 32% [middle of 4 runs] and the viability, T/C (compound 10 µM) was 2.79% [middle of 4 runs]. For the same compound, the IC50 (curve of compound) was under 31.6 nM.

`CC(=O)c1c(C)c2cnc(Nc3ccc(N4CCNCC4)cn3)nc2n(C2CCCC2)c1=O` + Cc1nc(NC(=O)N2CCCC2C(N)=O)sc1-c1ccnc(C(C)(C)C(F)(F)F)c1 gave an IC50 [3] of over 100 nM, an IC50 [4] of over 100 nM and an IC50 [5] of over 100 nM. It also gave an IC50 [6] of over 100 nM, an IC50 (curve of first compound, second compound 3.16 µM) of over 100 nM and an IC50 (curve of first compound, second compound 10 µM) of under 0.316 nM. The viability, T/C (second compound 0.0316 µM, first compound 0.000316 µM) was 105%, the viability, T/C (second compound 0.0316 µM, first compound 0.001 µM) was 96.8% and the viability, T/C (second compound 0.0316 µM, first compound 0.00316 µM) was 105%. The viability, T/C (second compound 0.0316 µM, first compound 0.01 µM) was 83.7%, the viability, T/C [19] was 117% and the viability, T/C [20] was 101%. The viability, T/C (second compound 0.1 µM, first compound 0.000316 µM) was 103%, the viability, T/C (second compound 0.1 µM, first compound 0.001 µM) was 91.8% and the viability, T/C (second compound 0.1 µM, first compound 0.00316 µM) was 92.9%. The viability, T/C (second compound 0.1 µM, first compound 0.01 µM) was 92.8%, the viability, T/C [25] was 89.4% and the viability, T/C [26] was 111%. The viability, T/C (second compound 0.316 µM, first compound 0.000316 µM) was 84.1%, the viability, T/C (second compound 0.316 µM, first compound 0.001 µM) was 83.5% and the viability, T/C (second compound 0.316 µM, first compound 0.00316 µM) was 85.8%. For the same compound, the viability, T/C (second compound 0.316 µM, first compound 0.01 µM) was 96.6%, the viability, T/C [31] was 86.4% and the viability, T/C [32] was 88.9%. The viability, T/C (second compound 1 µM, first compound 0.000316 µM) was 71%, the viability, T/C (second compound 1 µM, first compound 0.001 µM) was 89.5% and the viability, T/C (second compound 1 µM, first compound 0.00316 µM) was 74.6%. It also gave a viability, T/C (second compound 1 µM, first compound 0.01 µM) of 73.3%, a viability, T/C [37] of 73.5% and a viability, T/C [38] of 85.2%. The viability, T/C (second compound 3.16 µM, first compound 0.000316 µM) was 63%, the viability, T/C (second compound 3.16 µM, first compound 0.001 µM) was 72.1% and the viability, T/C (second compound 3.16 µM, first compound 0.00316 µM) was 67.8%. It also gave a viability, T/C (second compound 3.16 µM, first compound 0.01 µM) of 60%, a viability, T/C (second compound 3.16 µM, first compound 0.0316 µM) of 59.4% and a viability, T/C (second compound 3.16 µM, first compound 0.1 µM) of 67.5%. For the same compound, the viability, T/C (second compound 10 µM, first compound 0.000316 µM) was 41%, the viability, T/C (second compound 10 µM, first compound 0.001 µM) was 37.3% and the viability, T/C (second compound 10 µM, first compound 0.00316 µM) was 35.7%. For the same compound, the viability, T/C (second compound 10 µM, first compound 0.01 µM) was 35.4%, the viability, T/C (second compound 10 µM, first compound 0.0316 µM) was 34.9% and the viability, T/C (second compound 10 µM, first compound 0.1 µM) was 39.7%.

Compound `Cn1ncc(Cl)c1-c1cc(C(=O)NC(CN)Cc2cccc(F)c2)sc1Cl` (stereo not given) + CC(Nc1ccc2c(c1)OCCn1cc(N3C(=O)OCC3C(F)F)nc1-2)C(N)=O has an IC50 [1] of 85.2 nM, an IC50 [2] of 92.4 nM and an IC50 [3] of 105 nM. For the same compound, the IC50 [4] was 129 nM, the IC50 [5] was 92.9 nM and the IC50 [6] was 37.2 nM. It also gave a viability, T/C [7] of 64.3%, a viability, T/C [8] of 48.1% and a viability, T/C [9] of 33.3%. For the same compound, the viability, T/C [10] was 20.1%, the viability, T/C [11] was 19.9% and the viability, T/C [12] was 5.31%. For the same compound, the viability, T/C [13] was 75.2%, the viability, T/C [14] was 47.5% and the viability, T/C [15] was 30.2%. For the same compound, the viability, T/C [16] was 18.9%, the viability, T/C [17] was 18.3% and the viability, T/C [18] was 5.41%. The viability, T/C [19] was 66.6%, the viability, T/C [20] was 56.4% and the viability, T/C [21] was 27.3%. It also gave a viability, T/C [22] of 23.9%, a viability, T/C [23] of 16.9% and a viability, T/C [24] of 3.21%. It also gave a viability, T/C [25] of 83.1%, a viability, T/C [26] of 56% and a viability, T/C [27] of 29.9%. The viability, T/C [28] was 24.2%, the viability, T/C [29] was 15.9% and the viability, T/C [30] was 4.25%. It also gave a viability, T/C [31] of 71%, a viability, T/C [32] of 48.8% and a viability, T/C [33] of 30.7%. It also gave a viability, T/C [34] of 20.5%, a viability, T/C [35] of 12.9% and a viability, T/C [36] of 5.46%. The viability, T/C [37] was 50.6%, the viability, T/C [38] was 45.2% and the viability, T/C [39] was 32.2%. For the same compound, the viability, T/C [40] was 25%, the viability, T/C [41] was 13% and the viability, T/C [42] was 4.09%.
